Experimental data reported in the NIST ThermoML archive (doi:10.1016/j.jct.2005.03.027).

Tests used:
[1] = xn = mol fraction of the nth substance listed; details: 101 kPa, Liquid
[2] = refractive index (Na D-line) (dimensionless); details: 293.15 K; 101.33 kPa; Liquid; Standard Abbe refractometry
[3] = 101 kPa, Liquid

CCCCCCCCCCO [decan-1-ol] + BrC(Br)C(Br)Br
[1], x2 = 0
Details	mass density [kg/m3]	viscosity [mPa·s]
293.15 K	829.7	14.54
303.15 K	822.85	9.676

BrC(Br)C(Br)Br [1,1,2,2-tetrabromoethane]
Details	refractive index
[2]	1.63535

[3]
Details	mass density [kg/m3]	viscosity [mPa·s]
293.15 K	2963.2	10.94
303.15 K	2939.86	8.413

BrC(Br)C(Br)Br [1,1,2,2-tetrabromoethane] + CCCCCCCCO
[1]
Details	mass density, 293.15 K [kg/m3]	mass density, 303.15 K [kg/m3]	viscosity, 293.15 K [mPa·s]	viscosity, 303.15 K [mPa·s]
x1 = 0.099	–	980.93	–	6.446
x1 = 0.101	989.26	–	9.28	–
x1 = 0.1999	–	1151.32	–	6.535
x1 = 0.2013	1161.15	–	9.347	–
x1 = 0.2997	1338.99	–	9.426	–
x1 = 0.3001	–	1327.63	–	6.646
x1 = 0.3994	1529.17	–	9.527	–
x1 = 0.3995	–	1516.19	–	6.774
x1 = 0.5002	1732.98	–	9.661	–
x1 = 0.5006	–	1718.29	–	6.947
x1 = 0.5987	–	1931.52	–	7.155
x1 = 0.6003	1947.95	–	9.831	–
x1 = 0.6993	–	2157.22	–	7.398
x1 = 0.6998	2175.4	–	10.04	–
x1 = 0.799	–	2399.36	–	7.708
x1 = 0.7998	2419.28	–	10.32	–
x1 = 0.8992	–	2662.77	–	8.065
x1 = 0.9011	2684.42	–	10.63	–
x1 = 1	2963.2	2939.86	10.94	8.413

BrC(Br)C(Br)Br [1,1,2,2-tetrabromoethane] + CCCCCCCO
[1]
Details	mass density, 293.15 K [kg/m3]	mass density, 303.15 K [kg/m3]	viscosity, 293.15 K [mPa·s]	viscosity, 303.15 K [mPa·s]
x1 = 0.099	1001.11	992.57	7.314	5.033
x1 = 0.1999	1189.38	1179.18	7.577	5.262
x1 = 0.3001	1383.2	1371.29	7.86	5.513
x1 = 0.3995	1582.25	1568.62	8.171	5.801
x1 = 0.5006	1792.24	1776.88	8.531	6.128
x1 = 0.5987	2003.6	1986.59	8.915	6.484
x1 = 0.6993	2229.07	2210.42	9.351	6.886
x1 = 0.799	2461.79	2441.56	9.836	7.336
x1 = 0.8992	2706	2684.21	10.38	7.862
x1 = 1	2963.2	2939.86	10.94	8.413

CCCCCCCCO [octan-1-ol] + BrC(Br)C(Br)Br
[1], x2 = 0
Details	mass density [kg/m3]	viscosity [mPa·s]
293.15 K	824.99	9.219
303.15 K	818.09	6.358

CCCCCCO [hexan-1-ol]
Details	refractive index
[2]	1.41826

[3]
Details	mass density [kg/m3]	viscosity [mPa·s]
293.15 K	818.92	5.37
303.15 K	811.73	3.744

BrC(Br)C(Br)Br [1,1,2,2-tetrabromoethane] + CCCCCO
[1]
Details	mass density, 293.15 K [kg/m3]	mass density, 303.15 K [kg/m3]	viscosity, 293.15 K [mPa·s]	viscosity, 303.15 K [mPa·s]
x1 = 0.1009	1048.36	1038.85	4.543	3.24
x1 = 0.2014	1276.63	1265.1	5.078	3.639
x1 = 0.3004	1497.47	1484.08	5.653	4.078
x1 = 0.4003	1716.5	1701.36	6.278	4.563
x1 = 0.5014	1934.64	1917.88	6.942	5.089
x1 = 0.6001	2144.16	2125.93	7.621	5.631
x1 = 0.7001	2353.22	2333.58	8.346	6.217
x1 = 0.7998	2558.61	2537.64	9.119	6.846
x1 = 0.8997	2761.73	2739.49	9.968	7.555
x1 = 1	2963.2	2939.86	10.94	8.413

CCCCCO [pentan-1-ol]
Details	refractive index
[2]	1.40995

[3]
Details	mass density [kg/m3]	viscosity [mPa·s]
293.15 K	815.03	4.052
303.15 K	807.6	2.926

CCCCCCCCO [octan-1-ol]
Details	refractive index
[2]	1.42958

[3]
Details	mass density [kg/m3]	viscosity [mPa·s]
293.15 K	824.99	9.219
303.15 K	818.09	6.358

CCCCCO [pentan-1-ol] + BrC(Br)C(Br)Br
[1], x2 = 0
Details	mass density [kg/m3]	viscosity [mPa·s]
293.15 K	815.03	4.052
303.15 K	807.6	2.926

CCCCCCO [hexan-1-ol] + BrC(Br)C(Br)Br
[1], x2 = 0
Details	mass density [kg/m3]	viscosity [mPa·s]
293.15 K	818.92	5.37
303.15 K	811.73	3.744

BrC(Br)C(Br)Br [1,1,2,2-tetrabromoethane] + CCCCCCCCCCO
[1]
Details	mass density, 293.15 K [kg/m3]	mass density, 303.15 K [kg/m3]	viscosity, 293.15 K [mPa·s]	viscosity, 303.15 K [mPa·s]
x1 = 0.1023	968.19	960.09	14.09	9.449
x1 = 0.202	1114.37	1104.97	13.66	9.246
x1 = 0.3012	1272.36	1261.57	13.24	9.048
x1 = 0.4012	1446.62	1434.34	12.82	8.863
x1 = 0.5007	1636.66	1622.78	12.43	8.701
x1 = 0.6006	1847.04	1831.45	12.06	8.57
x1 = 0.7011	2081.74	2064.32	11.74	8.482
x1 = 0.8006	2340.68	2321.36	11.45	8.437
x1 = 0.9006	2632.79	2611.47	11.19	8.422
x1 = 1	2963.2	2939.86	10.94	8.413

CCCCCCCO [heptan-1-ol] + BrC(Br)C(Br)Br
[1], x2 = 0
Details	mass density [kg/m3]	viscosity [mPa·s]
293.15 K	822.39	7.058
303.15 K	815.41	4.821

CCCCCCCCCCO [decan-1-ol]
Details	refractive index
[2]	1.43706

[3]
Details	mass density [kg/m3]	viscosity [mPa·s]
293.15 K	829.7	14.54
303.15 K	822.85	9.676

BrC(Br)C(Br)Br [1,1,2,2-tetrabromoethane] + CCCCCCO
[1]
Details	mass density, 293.15 K [kg/m3]	mass density, 303.15 K [kg/m3]	viscosity, 293.15 K [mPa·s]	viscosity, 303.15 K [mPa·s]
x1 = 0.1001	1021.6	1012.63	5.764	4.031
x1 = 0.2007	1227.75	1216.94	6.116	4.348
x1 = 0.3004	1434.26	1421.62	6.633	4.709
x1 = 0.4004	1643.89	1629.48	7.123	5.112
x1 = 0.5005	1856.54	1840.42	7.644	5.542
x1 = 0.6008	2072.22	2054.51	8.195	6.009
x1 = 0.6999	2288.24	2269.06	8.786	6.508
x1 = 0.8012	2512.37	2491.76	9.433	7.068
x1 = 0.9001	2734.51	2712.53	10.14	7.699
x1 = 1	2963.2	2939.86	10.94	8.413

CCCCCCCO [heptan-1-ol]
Details	refractive index
[2]	1.42397

[3]
Details	mass density [kg/m3]	viscosity [mPa·s]
293.15 K	822.39	7.058
303.15 K	815.41	4.821
